The experiment concerns the target T1, human glucagon receptor (Homo sapiens, UniProt P47871).
T1 construct: expressed in transfected cells; host or cells: membranes of BHK cells, clone BHK hGCGR A3*25
Briefly: Assay (I)(b) glucagon receptor activation, CRE luciferase reporter gene assay in BHK cells. Format: cell-based. The settings on record: without presence of serum albumin; read-out: GlucagonR EC50 (pM), [Assay (I)(b)]. (In general: A reporter such as luciferase makes a cellular process visible.)

Molecules are shown by their SMILES. Starred links: 1 amine or outer side, 2 acyl side, 3 side chain; linkers in the order of their positions; H or OH if unused. Non-standard residues stand in square brackets, D forms with d. Residues, ends and D or L forms follow the SMILES beside them. Groups on a side chain read outwards from the residue. *: point of attachment. C18 diacid = O=C(O)CCCCCCCCCCCCCCCCC(=O)*; γGlu = O=C(O)[C@H](CCC(=O)[*:2])N[*:1]; Ac4c = NC1(C(=O)O)CCC1; AEEA = NCCOCCOCC(=O)O

T1 sequence (P47871 26-477): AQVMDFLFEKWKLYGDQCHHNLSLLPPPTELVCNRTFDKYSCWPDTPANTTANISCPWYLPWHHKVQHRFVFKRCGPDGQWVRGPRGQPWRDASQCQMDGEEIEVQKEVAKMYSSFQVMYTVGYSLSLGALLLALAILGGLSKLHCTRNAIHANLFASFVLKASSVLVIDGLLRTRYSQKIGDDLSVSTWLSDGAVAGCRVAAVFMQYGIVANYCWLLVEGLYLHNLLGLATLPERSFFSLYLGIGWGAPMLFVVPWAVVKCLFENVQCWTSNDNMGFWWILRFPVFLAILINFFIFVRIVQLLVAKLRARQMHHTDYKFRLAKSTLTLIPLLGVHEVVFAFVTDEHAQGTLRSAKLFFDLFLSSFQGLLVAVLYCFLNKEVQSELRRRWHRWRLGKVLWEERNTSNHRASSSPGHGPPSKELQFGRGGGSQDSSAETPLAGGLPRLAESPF

The EC50 is the midpoint of the concentration-response curve. For `CC[C@H](C)[C@H](NC(=O)[C@H](CC(C)C)NC(=O)[C@H](Cc1c[nH]c2ccccc12)NC(=O)[C@H](CCC(N)=O)NC(=O)[C@@H](NC(=O)[C@H](Cc1ccccc1)NC(=O)[C@H](CCC(=O)O)NC(=O)[C@H](CCC(N)=O)NC(=O)[C@H](C)NC(=O)[C@H](CCCNC(=N)N)NC(=O)[C@H](CCCNC(=N)N)NC(=O)[C@H](CO)NC(=O)[C@H](CCC(=O)O)NC(=O)[C@H](CC(C)C)NC(=O)[C@H](Cc1ccc(O)cc1)NC(=O)[C@H](CCCCN)NC(=O)[C@H](CO)NC(=O)[C@H](CC(C)C)NC(=O)[C@H](CC(=O)O)NC(=O)[C@H](CO)NC(=O)[C@@H](NC(=O)[C@H](Cc1ccccc1)NC(=O)[C@@H](NC(=O)CNC(=O)[C@H](CCC(N)=O)NC(=O)C1(NC(=O)[C@@H](N)Cc2c[nH]cn2)CCC1)[C@@H](C)O)[C@@H](C)O)C(C)C)C(=O)N[C@@H](CCCCNC(=O)CC[C@H](NC(=O)COCCOCCNC(=O)COCCOCCNC(=O)CC[C@H](NC(=O)CC[C@H](NC(=O)CCCCCCCCCCCCCCCCC(=O)O)C(=O)O)C(=O)O)C(=O)O)C(=O)N[C@H](C(N)=O)[C@@H](C)O` [Chem. 38, N^ε28-[(4S)-4-carboxy-4-[[2-[2-[2-[[2-[2-[2-[[(4S)-4-carboxy-4-[[(4S)-4-carboxy-4-(17-carboxyheptadecanoylamino)butanoyl]amino]butanoyl]amino]ethoxy]ethoxy]acetyl]amino]ethoxy]ethoxy]acetyl]amino]butanoyl]-[Acb2,Leu10,Glu15,Glu21,Ile27,Lys28]-Glucagon amide] (H-H[Ac4c]QGTFTSDLSKYLESRRAQEFVQWLIK([γGlu-AEEA-AEEA-γGlu-γGlu-C18 diacid])T-NH2; N-terminus assumed), the EC50 was 12 pM.

Source of the values: patent publication US10570184B2, “GLP-1/glucagon receptor co-agonists for medical use” (Novo Nordisk A/S, priority 2014, dated 2020).
